Laboratory results as given in article PMC12636382, “Human and zebrafish mineralocorticoid receptors reporter cell assays to assess the activity of chemicals” (iScience, 2025).
Where “and” joins values, the source holds several entries; their conditions need not be identical. Identical values can stand only once. Like-named read-outs stand apart in the source and are kept apart here.

What was measured:
[1] = target: T1, human MR (hMR) (Homo sapiens, UniProt P08235); assay: UG5LN-GAL4-hMR luciferase reporter cell assay (agonism and antagonism tests); format: cell-based; settings: for % min act: % of maximal luciferase activity induced by 10^−8 M aldosterone
T1 construct: hMR(LBD) (G671-K894) and zfMR(LBD) (L668-K970) have been amplified by PCR; expressed in transfected cells
T1 sequence (P08235 671-984 limits assumed): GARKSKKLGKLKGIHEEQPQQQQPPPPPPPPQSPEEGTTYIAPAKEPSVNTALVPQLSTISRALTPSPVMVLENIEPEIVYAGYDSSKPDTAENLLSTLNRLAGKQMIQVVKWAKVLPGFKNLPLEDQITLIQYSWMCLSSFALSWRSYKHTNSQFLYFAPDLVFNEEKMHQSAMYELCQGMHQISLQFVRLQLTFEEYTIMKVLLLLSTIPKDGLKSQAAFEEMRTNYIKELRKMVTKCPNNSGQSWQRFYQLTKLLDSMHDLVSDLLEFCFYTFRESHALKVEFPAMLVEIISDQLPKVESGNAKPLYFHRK
Experimental: (§1) The U2OS cells used to establish the MR reporter cell lines were obtained from and verified by ECACC (UK Health Security Agency, Porton Down, Salisbury, UK). The strategy used has been described previously to establish other NR-based cell lines.[42] First, the different pSG5-GAL4(DBD)-MRs (LBD) and (GAL4RE)5βGlob-Luc-SVNeo plasmids were tested by transient transfections in U2OS. Then, the UG5LN-GAL4-hMR and UG5LN-GAL4-zfMR clonal cells were generated in two steps. The first step was to establish clonal UG5LN cells by a stable transfection of U2OS cells, considered as steroid receptor negative, with the plasmid (GAL4RE)5βGlob-Luc-SVNeo. The second step consisted of the transfection of UG5LN cells with the plasmids pSG5-GAL4(DBD)-hMR(LBD)-puro, pSG5-GAL4(DBD)-hMRT870L(LBD)-puro or pSG5-GAL4(DBD)-zfMR(LBD)-puro, to generate UG5LN-GAL4-hMR, UG5LN-GAL4-hMRT870L and UG5LN-GAL4-zfMR clonal cells, respectively. Stable cell clones were selected in the presence of puromycin 0.5 μg/mL and G418 1 mg/mL. For each receptor, 5 to 10 clones were chosen for their ligand-induced luciferase expression. The clones were amplified and luciferase expression was checked at several passages. For each receptor, the clone with the best induction of luciferase activity was selected and used for the screening of the different chemicals. The stability and the inducibility of luciferase expression were checked during at least 20 passages (20 weeks).
(§2) To perform the reporter gene assay, cells were seeded in 96-wells white transparent culture plates (Greiner bio-one 655098CellStar; Dutscher, Brumath, France) at a density of 60,000 cells per well in 150 μL of culture medium and incubated at 37°C and 5% CO2 for 24 h. Then, after the attachment period, medium was removed and cells were exposed to increasing dilutions of the tested compounds in the experimental medium (DMSO; final concentration 0.1% v/v for chemicals and 0.3% v/v for water sample extracts) and incubated at 37°C and 5% CO2. After 24 h, medium was removed and replaced with 50 μL/well of experimental medium containing 0.3 mM luciferin. The luminescence signal was monitored in intact live cells for 2 s per well using a MicroBeta Wallac luminometer (PerkinElmer, Courtaboeuf, France). All experiments were performed in quadruplicate.
(§3) The quantification and statistical analysis are integral parts of the software used (GraphPad Prism 10, GraphPad Software Inc). The compounds were tested at different concentrations in at least three independent experiments. In each experiment, the compounds were tested in quadruplicate for each concentration, and the data were expressed as averages of the quadruplicates with their standard deviation to obtain a single value for that experimental series. Then, individual dose-response curves for each chemical were fitted from the averages of the three individual experiments using the sigmoidal dose-response function of the graphics and statistics software program GraphPad. Specifically, GraphPad employs nonlinear regression with the least squares method to fit the data to a sigmoidal function (based on the Hill equation). This method is used to determine the optimal parameter values, such as the Half Maximal Effective concentration (EC50) for agonist and the Half Maximal Inhibitory Concentration (IC50) for antagonist. […] Once the best-fit curve was obtained, the confidence intervals (e.g., 95% CI) for these parameters were estimated based on the uncertainty (variance) derived from the regression model, and the lower and upper 95% confidence limits of EC50s and IC50s were reported.

[2] = target: zebrafish MR (zfMR) (Danio rerio, UniProt A6YIH7); assay: UG5LN-GAL4-zfMR luciferase reporter cell assay (agonism and antagonism tests); format: cell-based; settings: for EC50: agonism test, chemical alone, mean of at least three experiments, read-out: EC50
Experimental: as §1, §2, §3

[3] = antagonism test, in presence of aldosterone 10^−9 M, UG5LN-GAL4-hMR cells, read-out: IC50
[4] = in words, UG5LN-GAL4-zfMR cells
[5] = antagonism test, in presence of aldosterone 0.5 10^−9 M, UG5LN-GAL4-zfMR cells, read-out: IC50
[6] = environmental chemicals at 10^−5 M, antagonism test
[7] = environmental chemicals, antagonism test with aldosterone 10^−9 M, UG5LN-GAL4-hMR, read-out: IC50
[8] = environmental chemicals, antagonism test with aldosterone 0.5 10^−9 M, UG5LN-GAL4-zfMR, read-out: IC50
[9] = antagonism test with aldosterone 10^−9 M, at 10^−5, 10^−6 or 10^−7 M depending on chemical

Chain of zebrafish MR (zfMR) (A6YIH7 entry or part of it): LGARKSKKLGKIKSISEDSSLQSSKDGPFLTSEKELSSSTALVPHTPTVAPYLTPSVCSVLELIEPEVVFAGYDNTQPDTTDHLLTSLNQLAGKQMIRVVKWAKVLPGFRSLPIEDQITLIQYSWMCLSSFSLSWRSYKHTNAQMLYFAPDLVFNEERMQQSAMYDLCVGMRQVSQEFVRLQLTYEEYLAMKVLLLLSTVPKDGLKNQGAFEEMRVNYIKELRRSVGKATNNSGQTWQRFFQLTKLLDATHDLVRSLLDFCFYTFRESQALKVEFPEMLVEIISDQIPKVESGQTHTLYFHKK

Row | Compound | activity profile on zfMR (agonist / partial agonist / antagonist) [2, 4] | % min act [1, 6] | IC50 [1, 7] | IC50 [2, 8] | % min act [2] | also measured
1 | C[C@]12CCC(=O)C=C1CC[C@@H]1[C@@H]2CC[C@@]2(C)[C@H]1CC[C@]2(O)C(=O)CO [11-deoxycortisol] | partially activate | – | – | – | – | IC50 [1, 3]: 0.0044 µM and 0.00441 µM; activity profile on hMR (agonist / partial agonist / antagonist) ([1]; in words, UG5LN-GAL4-hMR cells): complete antagonists; EC50 ([2]; UG5LN-GAL4-zfMR cells): 0.00073 µM; REP (relative potency) ([2]; ratio of EC50 values aldosterone/chemical, aldosterone set at 1): 0.41
2 | CC#C[C@]1(O)CC[C@H]2[C@@H]3CCC4=CC(=O)CCC4=C3[C@@H](c3ccc(N(C)C)cc3)C[C@@]21C [mifepristone] | full antagonists | – | – | – | – | activity profile on hMR (agonist / partial agonist / antagonist) ([1]; in words, UG5LN-GAL4-hMR cells): full antagonists; IC50 [2, 5]: 1.05 µM
3 | CC(C)(c1ccc(O)cc1)c1ccc(O)c(Cl)c1 [2-chloro-bisphenol A] | – | 12 ± 8.7% | 1.36 µM | 4.3 µM | – | % min act ([2]; environmental chemicals at 10^−5 M, antagonism test, % of maximal luciferase activity induced by 10^−8 M aldosterone): 13.2 ± 1.3%
4 | CC(=O)[C@H]1CC[C@H]2[C@@H]3CCC4=CC(=O)CC[C@]4(C)[C@H]3CC[C@]12C [progesterone] | partially activate | – | – | – | – | –
5 | CC(C)(c1ccc(O)cc1)c1ccc(O)cc1 [bisphenol A, Bisphenol A] | – | – | 2.28 µM | 5.15 µM | – | –
6 | CCCOCCN(C(=O)CCl)c1c(CC)cccc1CC [pretilachlore] | – | 21.5 ± 1.7% | 3.51 µM | 4.71 µM | 21 ± 0.7% | –
7 | CCC(=O)[C@@]1(C)CC[C@H]2[C@@H]3CCC4=CC(=O)CCC4=C3CC[C@@]21C [promegestone] | full antagonists | – | – | – | – | IC50 [1, 3]: 0.169 µM; activity profile on hMR (agonist / partial agonist / antagonist) ([1]; in words, UG5LN-GAL4-hMR cells): full antagonists; IC50 [2, 5]: 0.291 µM
8 | Bisphenol C | – | 51 ± 6% | 13.2 µM | 11.8 µM | – | –
9 | O=S1OCC2C(CO1)C1(Cl)C(Cl)=C(Cl)C2(Cl)C1(Cl)Cl (stereo not shown) [endosulfan] | – | – | 1.01 µM | 8.4 µM | – | –
10 | CC(=O)[C@H]1CC[C@H]2[C@@H]3CC=C4C[C@@H](O)CC[C@]4(C)[C@H]3CC[C@]12C [pregnenolone] | full antagonists | – | – | – | 4.1 ± 0.2% | % min act [1, 9]: 6.0 ± 1%; IC50 [1, 3]: 0.068 µM and 0.0677 µM; activity profile on hMR (agonist / partial agonist / antagonist) ([1]; in words, UG5LN-GAL4-hMR cells): full antagonists; IC50 [2, 5]: 0.166 µM
11 | ClC1=C(Cl)C2(Cl)C3C4C=CC(C4)C3C1(Cl)C2(Cl)Cl (stereo not shown) [aldrin] | – | – | 0.39 µM | 2.17 µM | – | –
12 | ClC1=C(Cl)[C@]2(Cl)[C@H]3[C@H]([C@H](Cl)C(Cl)[C@@H]3Cl)[C@@]1(Cl)C2(Cl)Cl (stereo partly shown) [transnonachlore] | – | 10 ± 0.9% | 0.61 µM | – | 57.8 ± 9% | –
13 | Nonylphenol mixture | – | 12 ± 2.5% | 1.56 µM | 9.2 µM | 40.7 ± 4.8% | –
14 | O=C1C2(Cl)C3(Cl)C4(Cl)C(Cl)(Cl)C5(Cl)C3(Cl)C1(Cl)C5(Cl)C24Cl (stereo not shown) [chlordecone] | – | 8.4 ± 1% | 1.21 µM | 5.59 µM | 28.6 ± 0.3% | –
15 | dihydroprogesterone | full antagonists | – | – | – | 5 ± 0.5% | % min act [1, 9]: 11 ± 2%; IC50 [1, 3]: 0.395 µM; activity profile on hMR (agonist / partial agonist / antagonist) ([1]; in words, UG5LN-GAL4-hMR cells): full antagonists; IC50 [2, 5]: 0.186 µM
16 | 17α-hydroxyprogesterone [17α-hydroxy progesterone] | full agonists | – | – | – | – | % max act [2]: 97.6 ± 1.2%; EC50 ([2]; UG5LN-GAL4-zfMR cells, listed as 17-α-hydroxy progesterone): 0.00024 µM; EC50 ([2]; UG5LN-GAL4-zfMR cells, listed as 17α-hydroxyprogesterone): 0.0002 µM
17 | C[C@]12CCC(=O)C[C@@H]1CC[C@@H]1[C@@H]2CC[C@]2(C)[C@@H](O)CC[C@@H]12 [dihydrotestosterone] | – | – | – | – | – | activity profile on hMR (agonist / partial agonist / antagonist) [1]: full antagonists; IC50 ([1]; IC50): 0.06 µM; activity profile on zfMR (agonist / partial agonist / antagonist) [2]: full antagonists; IC50 ([2]; IC50): 0.035 µM and 0.0349 µM
18 | C[C@]12CCC(=O)C=C1C=C[C@@H]1[C@@H]2CC[C@@]2(C)[C@H]1CC[C@@]21CCC(=O)O1 [canrenone] | full antagonists | – | – | – | – | IC50 [1, 3]: 0.017 µM and 0.0167 µM; activity profile on hMR (agonist / partial agonist / antagonist) ([1]; in words, UG5LN-GAL4-hMR cells): full antagonists; IC50 [2, 5]: 0.018 µM and 0.0184 µM
19 | C=CC(C)(O)C(=O)Nc1cc(Cl)cc(Cl)c1 (stereo not shown) [vinclozoline M2, Vinclozolin M2] | – | 28 ± 3.3% | 5.96 µM | 7 µM | 31 ± 0.5% | –
20 | CC(C)(C)CC(C)(C)c1ccc(O)cc1 [4-tert-octylphenol] | – | – | 2.12 µM | 15.8 µM | – | –
21 | Oc1ccc(C(c2ccc(O)cc2)C(Cl)(Cl)Cl)cc1 [HPTE] | – | 12.3 ± 1.5% | 2.06 µM | 11.1 µM | 51 ± 6.8% | –
22 | ClC(Cl)=C(c1ccc(Cl)cc1)c1ccccc1Cl [2,4′-DDE, 2,4′DDE] | – | 8.3 ± 1.2% | 0.47 µM | 6.9 µM | 34.8 ± 6.6% | –
